Reference: patent US20140357512A1, “HISTONE DEACETYLASE (HDAC) BIOMARKERS IN MULTIPLE MYELOMA” (priority 2013, published 2014)

System: human myeloma cell line MM.1S
Assay: SILAC acetylated-lysine peptide profiling, HDAC inhibitor vs DMSO (light/heavy ratio)
Assay type: cell-based
Source text: An embodiment of the invention comprises utilizing the SILAC method in order to quantitate changes in protein expression between two or more populations of cells. The SILAC method is a technique based on mass spectrometry that detects differences in protein abundance among samples using non-radioactive isotopic labeling. The SILAC method is known in the art, and described in detail in Ong et al., “Stable Isotope Labeling by Amino Acids in Cell Culture, SILAC, as a Simple and Accurate Approach to Expression Proteomics”, Molecular & Cellular Proteomics, vol. 1, pp. 376-386 (2002), which is incorporated herein by reference in its entirety.
Briefly, the SILAC method involves growing two populations of cells in cell culture. The first population of cells is grown in growth media containing normal amino acids (“normal media”). The second population of cells is grown in media lacking a standard essential amino acid (such as lysine), but is then supplemented with a non-radioactive, isotopically labeled form of that essential amino acid (such as lysine labeled with ^13C atoms, rather than normal ^12C atoms), which is called “heavy media”. When the two populations of cells are each growing in the medium, they incorporate the amino acids into all of their proteins. The growth of cells maintained in the heavy media is no different from that in normal media. All peptides containing the heavy amino acids are heavier than their normal counterparts. The cells from each of the two populations of cells are lysed. The lysates from each of the two cell populations are then combined. The combined cell lysates are then analyzed by mass spectrometry. Pairs of chemically identical peptides of different stable isotope composition can be differentiated in a mass spectrometer due to their difference in mass. The ratio of peak intensities in the mass spectrum for such peptide pairs reflects the abundance ratio for the two proteins.
This example describes SILAC studies that were performed to compare the effects of three different HDAC inhibitors (Compound A, Compound B, and tubastatin A) to a control on a human multiple myeloma cell line. The HDAC inhibitors were also compared amongst themselves to determine differences in their effects.
A human myeloma cell line MM.1S was grown using either ^12C (light) or ^13C (heavy) lysine containing culture medium. The “heavy” cells were treated with DMSO as the control, and the “light” cells were treated with a single HDAC inhibitor at 37° C. for 6 hours. The heavy and light cells were lysed, and the lysates were mixed in 1:1 ratio and digested with the protease trypsin. The acetylated lysine containing peptides (due to the action of the HDAC inhibitor) in the digested peptide pool were captured by a non-specific anti-acetylated lysine antibody cocktail (the antibodies identify both light and heavy acetylated peptides), and subjected to mass spectrometry analysis in order to identify thousands of individual peptides.
Thousands of peptides were identified in pairs (^12C and ^13C) due to their known mass differences. The amino acid sequence and quantitative ratio (Light/Heavy) of a given peptide in two differentially treated cell lysates were then determined and annotated with their possible protein (gene) sources.
As stated above, three HDAC inhibitors (Compound A, Compound B, and Tubastatin A) were used. Thus, the SILAC method was performed three times, with a different HDAC inhibitor compared to a control each time. Accordingly, there are three pairs of quantitative data in the table below, i.e., Compound A:DMSO, Compound B:DMSO, and Tubastatin A:DMSO. A cut-off of 1.30 fold of change (increase or decrease) was then used to determine “changed” or “+” in the table, and any peptides with a fold of change less than 1.3 fold were determined to be “unchanged” or “0” in the table. Those peptides that were not identified were marked as “NA” in the table. […]

O=C(NO)c1cnc(NC2(c3cccc(F)c3)CCCCC2)nc1 [Compound B, 2-((1-(3-fluorophenyl)cyclohexyl)amino)-N-hydroxypyrimidine-5-carboxamide]
−0.47: L/H ratio of acetylated peptide […](ac)TAVAPIER (SEQ ID NO: 11) (SLC25A5 [23], log 2 scale, drug vs DMSO)
−0.63: L/H ratio of acetylated peptide (ac)[…](ac)AAK (SEQ ID NO: 6) (VDAC3 [12], log 2 scale, drug vs DMSO)
−0.74 log 2: L/H ratio of acetylated peptide (SFYYK(ac)LR (SEQ ID NO: 395), Fatty acid synthase [2426], FASN)
−0.38 log 2: L/H ratio of acetylated peptide (TTHLIAK(ac)EEMIHNLQ (SEQ ID NO: 435), 26S proteasome non-ATPase regulatory subunit 12 [448], PSMD12)
−0.45 log 2: L/H ratio of acetylated peptide (SQNTK(ac)[…] (SEQ ID NO: 458), Nucleoprotein TPR [713], TPR) | light to heavy ratio (L/H ratio) of acetylated peptide SNYK(ac)MMFVK (SEQ ID NO: 368) (Small acidic protein [174], C11orf58, drug:DMSO)
−0.86 log 2: L/H ratio of acetylated peptide (TPSVGK(ac)[…] (SEQ ID NO: 418), Isoform Long of Antigen KI-67 [2264], MKI67)
−0.53 log 2: L/H ratio of acetylated peptide (SQSCETK(ac)LLDEK (SEQ ID NO: 410), Isoform 3 of Pro-interleukin-16 [277], IL16)
−0.57 log 2: L/H ratio of acetylated peptide (VAHLALK(ac)HR (SEQ ID NO: 436), Isoform Rpn10A of 26S proteasome non-ATPase regulatory subunit 4 [9]8, PSMD4)
0.40 log 2: L/H ratio of acetylated peptide (TTTCSK(ac)LAYYYQR (SEQ ID NO: 451), Signal recognition particle 54 kDa protein [120], SRP54)
0.00 log 2: L/H ratio of acetylated peptide (ac)AEK(ac)FDCHYCR (SEQ ID NO: 725, four and a half LIM domains protein 1 isoform 5 [20], FHL1) | L/H ratio of acetylated peptide […](ac)VIPK (SEQ ID NO: 726, Endoplasmic reticulum resident protein 29 [48], ERP29) | L/H ratio of acetylated peptide TITMK(ac)QLLR (SEQ ID NO: 728, Branched-chain-amino-acid aminotransferase [281], BCAT2) | L/H ratio of acetylated peptide SK(ac)FVLVK (SEQ ID NO: 729, Endoplasmic reticulum resident protein 29 [54], ERP29) | L/H ratio of acetylated peptide TVGQLYK(ac)EQLAK (SEQ ID NO: 731, Isoform 1 of Myosin-9 [651], MYH9) | L/H ratio of acetylated peptide AAETCQEPK(ac)EFR (SEQ ID NO: 732, NADH dehydrogenase [ubiquinone] 1 alpha subcomplex assembly factor 4 [91], NDUFAF4) | L/H ratio of acetylated peptide ILMEHIHK(ac)LK (SEQ ID NO: 735, 60S ribosomal protein L19 [144], RPL19) | L/H ratio of acetylated peptide K(ac)FDQLLAEEK (SEQ ID NO: 737, Isoform 1 of Myosin-9 [1445], MYH9) | L/H ratio of acetylated peptide FVEFDMK(ac)PVCK (SEQ ID NO: 738, Isoform 2 of LIM and senescent cell antigen-like-containing domain protein 2 [326], LIMS2) | L/H ratio of acetylated peptide KAEAQIAAK(ac)NLDK (SEQ ID NO: 740, Aspartate aminotransferase mitochondrial [90], GOT2) | L/H ratio of acetylated peptide ALCTGEK(ac)GFGYK (SEQ ID NO: 744, Peptidyl-prolyl cis-trans isomerase F mitochondrial [86], PPIF) | L/H ratio of acetylated peptide IYK(ac)SDGIK (SEQ ID NO: 745, ADP/ATP translocase 2 [166], SLC25A5) | L/H ratio of acetylated peptide VPK(ac)TAENFR (SEQ ID NO: 748, Peptidyl-prolyl cis-trans isomerase D [43], PPID) | L/H ratio of acetylated peptide VNCLDK(ac)FWHK (SEQ ID NO: 749, Isoform 1 of LIM and SH3 domain protein 1 [23], LASP1) | L/H ratio of acetylated peptide KGEDFVK(ac)TLK (SEQ ID NO: 750, Malate dehydrogenase mitochondrial [335], MDH2) | L/H ratio of acetylated peptide EAEFTK(ac)SIAK (SEQ ID NO: 751, Signal peptidase complex subunit 2 [191], LOC653566, SPCS2) | L/H ratio of acetylated peptide FEDK(ac)TVAYTEQK (SEQ ID NO: 754, Protein disulfide-isomerase A3 [218], PDIA3) | L/H ratio of acetylated peptide ILEFFGLK(ac)K (SEQ ID NO: 756, Protein disulfide-isomerase [308], P4HB) | light to heavy ratio (L/H ratio) of acetylated peptide LQDFK(ac)SFLLK (SEQ ID NO: 582) (Serine hydroxymethyltransferase mitochondrial [469], gene SHMT2, inhibitor:DMSO) | light to heavy ratio (L/H ratio) of acetylated peptide SFLLK(ac)DSETSQR (SEQ ID NO: 567) (Serine hydroxymethyltransferase mitochondrial [474], gene SHMT2, inhibitor:DMSO) | light to heavy ratio (L/H ratio) of acetylated peptide SGLLDK(ac)WK (SEQ ID NO: 602) (Signal peptidase complex subunit 2 [38], gene LOC653566, SPCS2, inhibitor:DMSO) | light to heavy ratio (L/H ratio) of acetylated peptide YDDPEVQK(ac)DIK (SEQ ID NO: 578) (Stress-70 protein mitochondrial [135], gene HSPA9, inhibitor:DMSO) | light to heavy ratio (L/H ratio) of acetylated peptide […](ac)SLAEHR (SEQ ID NO: 534) (Stress-induced-phosphoprotein 1 [325], gene STIP1, inhibitor:DMSO) | light to heavy ratio (L/H ratio) of acetylated peptide NICSK(ac)YSVR (SEQ ID NO: 256) (Thioredoxin domain-containing protein 5 [390], TXNDC5, MUTED, MUTED-TXNDC5, drug:DMSO) | light to heavy ratio (L/H ratio) of acetylated peptide SEIINSK(ac)NFDR (SEQ ID NO: 525) (Transmembrane protein 43 [159], gene TMEM43, inhibitor:DMSO) | light to heavy ratio (L/H ratio) of acetylated peptide VK(ac)[…] (SEQ ID NO: 562) (Tricarboxylate transport protein mitochondrial [149], gene SLC25A1, inhibitor:DMSO) | light to heavy ratio (L/H ratio) of acetylated peptide VPGK(ac)DTVTK (SEQ ID NO: 308) (Trifunctional enzyme subunit beta mitochondrial [272], HADHB, drug:DMSO)
0.00: light to heavy ratio (L/H ratio) of acetylated peptide, log 2 scale (SFEEK(ac)VENLK (SEQ ID NO: 233), Isoform 1 of Tumor protein D52 [180], TPD52) | L/H ratio of acetylated peptide LFAK(ac)[…] (SEQ ID NO: 98) (SFPQ [319], log 2 scale, drug vs DMSO) | L/H ratio of acetylated peptide […](ac)MILIGR (SEQ ID NO: 100) (SFXN1 [86], log 2 scale, drug vs DMSO) | L/H ratio of acetylated peptide […](ac)DK (SEQ ID NO: 103) (SLC25A5 [92], log 2 scale, drug vs DMSO) | L/H ratio of acetylated peptide AFFK(ac)GAWSNVLR (SEQ ID NO: 102) (SLC25A5 [272], log 2 scale, drug vs DMSO) | L/H ratio of acetylated peptide […](ac)ANVAK (SEQ ID NO: 101) (SLC25A10 [173], log 2 scale, drug vs DMSO) | L/H ratio of acetylated peptide TWEK(ac)LLLAAR (SEQ ID NO: 104) (SNORA6, RPSAP15, SNORA62, RPSA [57], log 2 scale, drug vs DMSO) | L/H ratio of acetylated peptide […](ac)YGAIR (SEQ ID NO: 107) (SRSF1 [38], log 2 scale, drug vs DMSO) | L/H ratio of acetylated peptide (ac)AEPSAPESK(ac)HK (SEQ ID NO: 108) (STT3B [10], log 2 scale, drug vs DMSO) | light to heavy ratio (L/H ratio) of acetylated peptide, log 2 scale (TAMK(ac)YNLGLDLR (SEQ ID NO: 158), Glutamate dehydrogenase 1 mitochondrial [527], GLUD1) | light to heavy ratio (L/H ratio) of acetylated peptide, log 2 scale (TLQYK(ac)[…] (SEQ ID NO: 252), 40S ribosomal protein S16 [50], RPS16) | light to heavy ratio (L/H ratio) of acetylated peptide, log 2 scale (TPVIVTLK(ac)ENER (SEQ ID NO: 176), Hypoxia up-regulated protein 1 [75], HYOU1) | L/H ratio of acetylated peptide […](ac)YVPR (SEQ ID NO: 109) (TUBB2C [58], log 2 scale, drug vs DMSO) | L/H ratio of acetylated peptide ILAEGGGAK(ac)FK (SEQ ID NO: 110) (TUFM [91], log 2 scale, drug vs DMSO) | L/H ratio of acetylated peptide QIESK(ac)[…] (SEQ ID NO: 111) (TXN [8], log 2 scale, drug vs DMSO) | L/H ratio of acetylated peptide VYVAK(ac)[…] (SEQ ID NO: 113) (TXNDC5, MUTED, MUTED-TXNDC5 [118], log 2 scale, drug vs DMSO) | L/H ratio of acetylated peptide […](ac)YQGPR (SEQ ID NO: 112) (TXNDC5, MUTED, MUTED-TXNDC5 [150], log 2 scale, drug vs DMSO) | light to heavy ratio (L/H ratio) of acetylated peptide, log 2 scale (TYGEIFEK(ac)FHPIR (SEQ ID NO: 188), NADH dehydrogenase [ubiquinone] 1 subunit C2 [114], NDUFC2) | light to heavy ratio (L/H ratio), log 2 scale, acetylated peptide […](ac)YGK (SEQ ID NO: 817) (Transitional endoplasmic reticulum ATPase [109], gene VCP, drug:DMSO) | light to heavy ratio (L/H ratio), log 2 scale, acetylated peptide FGAPQK(ac)DVK (SEQ ID NO: 788) (Trifunctional enzyme subunit alpha mitochondrial [359], gene HADHA, drug:DMSO) | light to heavy ratio (L/H ratio), log 2 scale, acetylated peptide ILQEGVDPK(ac)K (SEQ ID NO: 789) (Trifunctional enzyme subunit alpha mitochondrial [569], gene HADHA, drug:DMSO) | L/H ratio of acetylated peptide VVVTK(ac)YCDPDSYHR (SEQ ID NO: 114) (U2AF2 [462], log 2 scale, drug vs DMSO) | L/H ratio of acetylated peptide FGIAAK(ac)[…] (SEQ ID NO: 115) (VDAC1 [224], log 2 scale, drug vs DMSO) | L/H ratio of acetylated peptide YK(ac)[…] (SEQ ID NO: 116) (VDAC2 [63], log 2 scale, drug vs DMSO) | L/H ratio of acetylated peptide YK(ac)[…] (SEQ ID NO: 117) (VDAC3 [63], log 2 scale, drug vs DMSO)
−0.56 log 2: L/H ratio of acetylated peptide (TFYQMYDK(ac)GLVYR (SEQ ID NO: 407), Isoleucyl-tRNA synthetase mitochondrial [233], IARS2)
0.74 log 2: L/H ratio of acetylated peptide (TVSK(ac)[…] (SEQ ID NO: 428), 6-phosphogluconate dehydrogenase decarboxylating [38], PGD)
